Where a name gives a salt, the structure may show the parent alone. Read-outs that look alike come from different tables or passages of the source. Bounds are passed on as bounds.

The target in the assay is T1, IKK2 (Homo sapiens, UniProt O14920).
T1 construct: made in house; host or cells: insect cells (baculovirus, pFastBac; SF9)
T1 sequence (O14920 1-756): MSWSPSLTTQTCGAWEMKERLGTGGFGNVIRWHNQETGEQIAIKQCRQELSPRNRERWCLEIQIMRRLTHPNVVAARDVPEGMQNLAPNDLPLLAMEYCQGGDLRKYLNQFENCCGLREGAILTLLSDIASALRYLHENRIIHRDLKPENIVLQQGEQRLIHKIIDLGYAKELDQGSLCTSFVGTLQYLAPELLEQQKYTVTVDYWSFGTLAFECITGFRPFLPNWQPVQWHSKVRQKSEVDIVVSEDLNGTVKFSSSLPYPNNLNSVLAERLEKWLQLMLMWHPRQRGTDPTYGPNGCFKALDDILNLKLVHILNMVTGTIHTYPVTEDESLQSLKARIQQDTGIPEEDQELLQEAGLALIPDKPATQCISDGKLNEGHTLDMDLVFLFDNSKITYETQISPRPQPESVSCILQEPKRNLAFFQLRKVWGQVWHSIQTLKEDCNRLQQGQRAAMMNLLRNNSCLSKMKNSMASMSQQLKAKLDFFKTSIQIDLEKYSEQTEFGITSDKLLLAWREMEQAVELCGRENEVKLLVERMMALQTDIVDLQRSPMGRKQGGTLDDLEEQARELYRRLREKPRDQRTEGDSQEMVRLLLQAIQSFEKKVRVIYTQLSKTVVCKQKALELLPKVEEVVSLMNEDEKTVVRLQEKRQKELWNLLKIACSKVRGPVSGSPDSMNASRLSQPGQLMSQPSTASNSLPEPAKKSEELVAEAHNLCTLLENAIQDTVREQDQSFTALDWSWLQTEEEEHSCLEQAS
In words: IKKβ Resin Enzyme Assay (IKK2 resin). The assay is classed as biochemical. A digest of the protocol:
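Radiometric test: [γ-33P]ATP incorporation into a biotinylated IκBα peptide, 30 min at 25° C, pH 7.6 Hepes with MgCl2/MnCl2 and 1 μM cold ATP. Reaction is quenched with Dowex resin and the supernatant is counted. Kinase is FLAG-purified homodimeric recombinant human IKK2 from insect cells.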

Where [1] appears, read: Table 2, read-out: IKK Resin IC50.
[2] abbreviates: Table 6, read-out: IKK2 Resin IC 50.
The mark [3] stands for this setting: Table 10, read-out: IKK2 Resin IC50.
Setting [4] is: Table 18, read-out: IKK2 Resin IC50.
[5] abbreviates: Table 4, read-out: IKK2 Resin IC50.
[6] abbreviates: Table 3, read-out: IKK Resin IC50.

`CS(=O)(=O)c1ccc(-n2nc(C(N)=O)c3c2-c2cc(NC(=O)c4ccccc4Cl)ccc2CC3)cc1` [Example 95, 8-[(2-chlorobenzoyl)animo]-1-[4-(methylsulfonyl)phenyl]-4,5-dihydro-1H-benzo[g]indazole-3-carboxamide]: the IC50 under setting [1] was at most 1 µM.

Turning to `CSc1ccc(-n2nc(C(N)=O)c3c2-c2cc(NC(=O)c4cc5c(cc4Cl)OCO5)ccc2CC3)cc1` [Example 413, 8-{[(6-chloro-1,3-benzodioxol-5-yl)carbonyl]amino}-1-[4-(methylthio)phenyl]-4,5-dihydro-1H-benzo[g]indazole-3-carboxamide], the IC50 (Table 19, read-out: IKK2 Resin IC50) is at most 1 µM.

In the case of `NC(=O)c1nn(-c2ccc(F)cc2)c2c1CCc1ccc(NC(=O)c3cccc(N)c3Cl)cc1-2` [Example 229, 8-[(3-amino-2-chlorobenzoyl)amino]-1-(4-fluorophenyl)-4,5-dihydro-1H-benzo[g]indazole-3-carboxamide], under setting [2], the IC50 was at most 1 µM.

As for `COc1ccc(C(=O)Nc2ccc3c(c2)-c2c(c(C(N)=O)nn2-c2cccc(O)c2)CC3)c(Cl)c1` [Example 283, 8-[(2-chloro-4-methoxybenzoyl)ammo]-1-(3-hydroxyphenyl)-4,5-dihydro-1H-benzo[g]indazole-3-carboxamide], under setting [3], the IC50 was at most 1 µM.

In the case of `CC(C)(C)NCC(=O)Nc1ccc2c(c1)-c1c(c(C(N)=O)nn1-c1ccc3c(c1)OCO3)CC2` [Example 450, 1-(1,3-benzodioxol-5-yl)-8-{[N-(tert-butyl)glycyl]amino}-4,5-dihydro-1H-benzo[g]indazole-3-carboxamide], the IC50 (Table 23, read-out: IKK2 Resin IC50) was at most 1 µM.

Turning to `NCCCS(=O)(=O)c1ccc(-n2nc(C(N)=O)c3c2-c2cc(NC(=O)c4ccccc4Cl)ccc2CC3)cc1` [Example 404, 1-{4-[(3-aminopropyl)sulfonyl]phenyl}-8-[(2-chlorobenzoyl)amino]-4,5-dihydro-1H-benzo[g]indazole-3-carboxamide hydrochloride], the IC50 under setting [4] was at most 1 µM.

For the compound `NC(=O)c1nn(-c2ccc3c(c2)OCO3)c2c1CCc1ccc(NC(=O)c3cc(Cl)ccc3Cl)cc1-2` [Example 189, 1-(1,3-benzodioxol-5-yl)-8-[(2,5-dichlorobenzoyl)amino]-4,5-dihydro-1H-benzo[g]indazole-3-carboxamide], the IC50 under setting [5] is at most 1 µM.

As for `CS(=O)(=O)c1ccc(C(=O)Nc2ccc3c(c2)-c2c(c(C(N)=O)nn2-c2ccc(F)cc2)CC3)c(Cl)c1` [Example 226, 8-{[2-chloro-4-(methylsulfonyl)benzoyl]amino}-1-(4-fluorophenyl)-4,5-dihydro-1H-benzo[g]indazole-3-carboxamide], the IC50 under setting [2] is at most 1 µM.

Regarding `CNC(=O)/C=C/c1ccc(-n2nc(C(N)=O)c3c2-c2cc(NC(=O)c4ccccc4Cl)ccc2CC3)cc1` [Example 311, 8-[(2-chlorobenzoyl)amino]-1-{4-[(1E)-3-(methylamino)-3-oxoprop-1-enyl]phenyl}-4,5-dihydro-1H-benzo[g]indazole-3-carboxamide], the IC50 (Table 12, read-out: IKK2 Resin IC50) was at most 1 µM.

As to `CCS(=O)(=O)c1ccc(-n2nc(C(N)=O)c3c2-c2cc(NC(=O)c4cc(N)ccc4Cl)ccc2CC3)cc1` [Example 398, 8-[(5-amino-2-chlorobenzoyl)amino]-1-[4-(ethylsulfonyl)phenyl]-4,5-dihydro-1H-benzo[g]indazole-3-carboxamide], the IC50 under setting [4] was at most 1 µM.

On to `CS(=O)(=O)c1ccc(-n2nc(C(N)=O)c3c2-c2cc(NC(=O)c4ccc([N+](=O)[O-])cc4[N+](=O)[O-])ccc2CC3)cc1` [Example 155, 8-[(2,4-dinitrobenzoyl)animo]-1-[4-(methylsulfonyl)phenyl]-4,5-dihydro-1H-benzo[g]indazole-3-carboxamide], for which the IC50 under setting [6] was at most 1 µM.

Turning to `NC(=O)c1nn(-c2ccc3c(c2)OCO3)c2c1CCc1ccc(NC(=O)c3ccncc3Cl)cc1-2` [Example 170, 1-(1,3-benzodioxol-5-yl)-8-[(3-chloroisonicotinoyl)amino]-4,5-dihydro-1H-benzo[g]indazole-3-carboxamide], the IC50 under setting [5] was at most 1 µM.

`Cc1ccccc1C(=O)Nc1ccc2c(c1)-c1c(c(C(N)=O)nn1-c1ccc(F)cc1)CC2` [Example 240, 1-(4-fluorophenyl)-8-[(2-methylbenzoyl)amino]-4,5-benzo[g]indazole-3-dihydro-1H-carboxamide]: the IC50 under setting [2] is at most 1 µM.

As to `CN1CCN(c2ccc(Cl)c(C(=O)Nc3ccc4c(c3)-c3c(c(C(N)=O)nn3-c3ccc5c(c3)OCO5)CC4)n2)CC1` [Example 217, 1-(1,3-benzodioxol-5-yl)-8-({[3-chloro-6-(4-methylpiperazin-1-yl)pyridin-2-yl]carbonyl}amino)-4,5-dihydro-1H-benzo[g]indazole-3-carboxamide], the IC50 (Table 5, read-out: IKK2 Resin Avg. IC50) is at most 1 µM.

Regarding `CNS(=O)(=O)c1ccc(-n2nc(C(N)=O)c3c2-c2cc(NC(=O)c4ccccc4Cl)ccc2CC3)cc1` [Example 422, 8-[(2-chlorobenzoyl)amino]-1-{4-[(methylamino)sulfonyl]phenyl}-4,5-dihydro-1H-benzo[g]indazole-3-carboxamide], where the note is “read-out: IKK-2 resin IC50”, the IC50 is at most 1 µM.

With `NC(=O)c1nn(-c2ccc(F)cc2F)c2c1CCc1ccc(NC(=O)c3cccnc3Cl)cc1-2` [Example 366, 8-{[(2-chloropyridin-3-yl)carbonyl]amino}-1-(2,4-difluorophenyl)-4,5-dihydro-1H-benzo[g]indazole-3-carboxamide], the IC50 (Table 14, read-out: IKK2 Resin IC50) is at most 1 µM.

Regarding `Cc1ccncc1C(=O)Nc1ccc2c(c1)-c1c(c(C(N)=O)nn1-c1ccc3c(c1)OCO3)CC2` [Example 187, 1-(1,3-benzodioxol-5-yl)-8-{[(4-methylpyridin-3-yl)carbonyl]amino}-4,5-dihydro-1H-benzo[g]indazole-3-carboxamide], the IC50 under setting [5] is at most 1 µM.

Consider `NC(=O)c1nn(-c2ccc3c(c2)OCO3)c2c1CCc1ccc(NC(=O)c3ccc(N)cc3Cl)cc1-2` [Example 180, 8-[(4-amino-2-chlorobenzoyl)amino]-1-(1,3-benzodioxol-5-yl)-4,5-dihydro-1H-benzo[g]indazole-3-carboxamide], for which, under setting [5], the IC50 was at most 1 µM.

Consider `NC(=O)c1nn(-c2cccc(O)c2)c2c1CCc1ccc(NC(=O)c3cc4c(cc3Cl)OCO4)cc1-2` [Example 277, 8-{[(6-chloro-1,3-benzodioxol-5-yl)carbonyl]amino}-1-(3-hydroxyphenyl)-4,5-dihydro-1H-benzo[g]indazole-3-carboxamide], for which the IC50 under setting [3] was at most 1 µM.

In the case of `CS(=O)(=O)c1ccc(-n2nc(C(N)=O)c3c2-c2cc(NC(=O)c4cccc(Cl)c4Cl)ccc2CC3)cc1` [Example 96, 8-[(2,3-dichlorobenzoyl)amino]-1-[4-(methylsulfonyl)phenyl]-4,5-dihydro-1H-benzo[g]indazole-3-carboxamide], the IC50 under setting [1] is at most 1 µM.

For `CC1(C)OCC(COc2cccc(-n3nc(C(N)=O)c4c3-c3cc(NC(=O)c5ccncc5Cl)ccc3CC4)c2)O1` (stereo not shown) [Example 275, 8-[(3-chloroisonicotinoyl)amino]-1-{3-[(2,2-dimethyl-1,3-dioxolan-4-yl)methoxy]phenyl}-4,5-dihydro-1H-benzo[g]indazole-3-carboxamide], the IC50 (Table 9, read-out: IKK2 Resin IC50) lay in the range of 1 to 10 µM.

On to `NC(=O)c1nn(-c2cccc(O)c2)c2c1CCc1ccc(NC(=O)c3ccncc3Cl)cc1-2` [Example 281, 8-[(3-chloroisonicotnoyl)amino]-1-(3-hydroxyphenyl)-4,5-dihydro-1H-benzo[g]indazole-3-carboxamide], for which the IC50 under setting [3] is at most 1 µM.

For `COCC(=O)Nc1ccc(-n2nc(C(N)=O)c3c2-c2cc(NC(=O)c4ccccc4Cl)ccc2CC3)cc1` [Example 374, 8-[(2-chlorobenzoyl)amino]-1-{4-[(methoxyacetyl)amino]phenyl}-4,5-dihydro-1H-benzo[g]indazole-3-carboxamide], for the setting “Table 15, read-out: IKK2 Resin IC50”, the IC50 was at most 1 µM.

As to `NC(=O)c1nn(-c2ccc(F)cc2)c2c1CCc1ccc(NC(=O)c3cccnc3Cl)cc1-2` [Example 225, 8-{[(2-chloropyridin-3-yl)carbonyl]amino}-1-(4-fluorophenyl)-4,5-dihydro-1H-benzo[g]indazole-3-carboxamide], the IC50 under setting [2] was at most 1 µM.

Turning to `CS(=O)(=O)c1ccc(-n2nc(C(N)=O)c3c2-c2cc(NC(=O)c4cc(Br)ccc4Cl)ccc2CC3)cc1` [Example 136, 8-[(5-bromo-2-chlorobenzoyl)amino]-1-[4-(methylsulfonyl)phenyl]-4,5-dihydro-1H-benzo[g]indazole-3-carboxamide], the IC50 under setting [6] is at most 1 µM.

The record behind these values is patent US7186743B2, “Substituted pyrazolyl compounds for the treatment of inflammation” (Pharmacia Corporation, priority 2001, dated 2007).
